Experimental data published in US9957271B2, “Substituted bicyclic aza-heterocycles and analogues as sirtuin modulators” (GlaxoSmithKline, LLC, priority 2012, dated 2018).

Experiments:
SIRT1 [1] = molecular target: T1, SIRT1 (Homo sapiens, UniProt Q96EB6); assay: Trp mass spectrometry assay of SIRT1 activity; type: biochemical; conditions: for Emax: read-out: Trp % Fold Act
T1 sequence (Q96EB6 1-747): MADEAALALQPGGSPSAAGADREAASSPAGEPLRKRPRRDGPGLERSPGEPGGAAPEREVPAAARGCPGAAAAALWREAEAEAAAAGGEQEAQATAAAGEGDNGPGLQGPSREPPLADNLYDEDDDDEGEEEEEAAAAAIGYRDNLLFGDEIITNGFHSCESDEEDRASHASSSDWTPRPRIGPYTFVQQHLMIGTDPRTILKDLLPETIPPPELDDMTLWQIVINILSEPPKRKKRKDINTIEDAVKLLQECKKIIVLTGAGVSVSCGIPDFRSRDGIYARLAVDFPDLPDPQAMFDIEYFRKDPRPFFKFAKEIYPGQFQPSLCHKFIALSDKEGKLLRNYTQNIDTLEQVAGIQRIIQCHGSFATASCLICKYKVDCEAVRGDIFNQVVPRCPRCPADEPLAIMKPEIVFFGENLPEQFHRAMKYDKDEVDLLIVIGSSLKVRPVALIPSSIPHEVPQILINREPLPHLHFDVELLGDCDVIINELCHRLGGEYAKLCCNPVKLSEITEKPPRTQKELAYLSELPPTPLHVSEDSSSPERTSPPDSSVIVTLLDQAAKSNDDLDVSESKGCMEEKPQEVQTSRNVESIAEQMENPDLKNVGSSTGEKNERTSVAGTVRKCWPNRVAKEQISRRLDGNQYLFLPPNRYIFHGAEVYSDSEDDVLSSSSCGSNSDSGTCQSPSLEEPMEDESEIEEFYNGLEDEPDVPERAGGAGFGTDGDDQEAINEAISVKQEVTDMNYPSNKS
How it was run: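 His-tagged SIRT1 expressed in E. coli BL21(DE3), 10 nM, incubated 25 min at 25° C. with 0.5 μM Ac-RHKK(Ac)W-NH2 peptide and 120 μM βNAD+ in 50 mM HEPES pH 7.5, […], 1 mM DTT, 0.05% BSA; formic acid stop. OAADPR or deacetylated peptide measured by mass spectrometry; EC1.5 and percent maximum activation versus DMSO control.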

SIRT1 [2] = molecular target: T1, SIRT1; assay: TAMRA based mass spectrometry assay of SIRT1 activity; type: biochemical; conditions: for Emax: read-out: TAMRA % Fold Act
How it was run: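 Recombinant N-terminal His-tagged human SIRT1 (10 nM, E. coli) incubated 25 min at 25 °C with 0.5 μM 5TMR-labelled p53-derived acetyl-peptide and 120 μM βNAD+ in Tris-acetate pH 8 buffer with DTT and 0.05% BSA, compound at varying concentrations. Stopped with formic acid; deacetylated peptide or OAADPR measured by mass spectrometry relative to DMSO controls.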

[3] = Trp assay, concentration giving 150% activation of SIRT1
[4] = Trp assay, percent maximum fold activation
[5] = TAMRA assay, concentration giving 150% activation of SIRT1
[6] = TAMRA assay, percent maximum fold activation
[7] = concentration of test compound giving 150% activation of SIRT1, Trp peptide substrate
[8] = percent maximum fold activation of SIRT1, Trp peptide substrate
[9] = concentration of test compound giving 150% activation of SIRT1, TAMRA peptide substrate
[10] = percent maximum fold activation of SIRT1, TAMRA peptide substrate
[11] = Trp peptide substrate, concentration giving 150% activation of SIRT1
[12] = Trp peptide substrate, percent maximum fold activation
[13] = TAMRA peptide substrate, concentration giving 150% activation of SIRT1
[14] = TAMRA peptide substrate, percent maximum fold activation

Trp EC1.5 (μM) (SIRT1 [1]; [3])	Emax (SIRT1 [1]; [4]) [%]	TAMRA EC1.5 (μM) (SIRT1 [2]; [5])	Emax (SIRT1 [2]; [6]) [%]	Trp EC1.5 (μM) (SIRT1 [1]; [7])	Emax (SIRT1 [1]; [8]) [%]	TAMRA EC1.5 (μM) (SIRT1 [2]; [9])	Emax (SIRT1 [2]; [10]) [%]	Structure (SMILES)	further results
A (EC1.5<1 μM)	≥ 350	A (EC1.5<1 μM)	≥ 350	–	–	–	–	Cc1cncc(NC(=O)c2cnn3ccc(-c4ccccc4OC(F)(F)F)nc23)c1 [Compound 616]	–
A (EC1.5<1 μM)	≥ 350	B (EC1.5 1-25 μM)	≥ 350	–	–	–	–	Cc1ncccc1NC(=O)c1c(C)nn2ccc(-c3ccccc3Br)nc12 [Compound 824]	–
B (EC1.5 1-25 μM)	< 350	A (EC1.5<1 μM)	≥ 350	–	–	–	–	O=C(Nc1cnc2ccc(-c3ccccc3C(F)(F)F)nn12)c1cnc(O)cn1 [Compound 704]	–
A (EC1.5<1 μM)	≥ 350	A (EC1.5<1 μM)	≥ 350	–	–	–	–	Cc1cc(-c2ccccc2C(F)(F)F)nn2c(C(=O)Nc3nccc(N4CCCC4)n3)cnc12 [Compound 647]	–
B (EC1.5 1-25 μM)	< 350	A (EC1.5<1 μM)	≥ 350	–	–	–	–	Cc1nccc(C(=O)Nc2cnc3ccc(-c4ccccc4C(F)(F)F)nn23)n1 [Compound 389]	–

The next lines start with the compound.

Structure (SMILES)	Trp EC1.5 (μM) (SIRT1 [1]; [3])	Emax (SIRT1 [1]; [4]) [%]	TAMRA EC1.5 (μM) (SIRT1 [2]; [5])	Emax (SIRT1 [2]; [6]) [%]	Trp EC1.5 (μM) (SIRT1 [1]; [7])	Emax (SIRT1 [1]; [8]) [%]	TAMRA EC1.5 (μM) (SIRT1 [2]; [9])	Emax (SIRT1 [2]; [10]) [%]	further results
Cc1cc(-c2ccccc2C(F)(F)F)nn2c(C(=O)Nc3ccnc(N4CCC4)c3)cnc12 [Compound 207]	A (EC1.5<1 μM)	≥ 350	A (EC1.5<1 μM)	≥ 350	–	–	–	–	–
Cc1ccc(NC(=O)c2cnc3ccc(-c4ccccc4C(F)(F)F)nn23)cn1 [Compound 98]	–	–	–	–	B (EC1.5 1-25 μM)	≥ 350	B (EC1.5 1-25 μM)	≥ 350	–
COc1cccc(C(=O)Nc2c(C)nc3c(C)cc(-c4ccccc4C(F)(F)F)nn23)n1 [Compound 589, N-(2,8-dimethyl-6-(2-(trifluoromethyl)phenyl)imidazo[1,2-b]pyridazin-3-yl)-6-methoxypicolinamide]	–	–	–	–	–	–	–	–	Trp EC1.5 (SIRT1 [1]; [11]): B (EC1.5 1-25 μM); Emax (SIRT1 [1]; [12]): < 350%; TAMRA EC1.5 (SIRT1 [2]; [13]): B (EC1.5 1-25 μM); Emax (SIRT1 [2]; [14]): ≥ 350%
Cc1cccc(NC(=O)c2cnc3ccc(-c4ccccc4C(F)(F)F)nn23)n1 [Compound 78]	–	–	–	–	A (EC1.5<1 μM)	≥ 350	A (EC1.5<1 μM)	≥ 350	–
Cc1cc(NC(=O)c2cnc3ccc(-c4ccccc4F)nn23)cc(C)n1 [Compound 257]	B (EC1.5 1-25 μM)	< 350	A (EC1.5<1 μM)	< 350	–	–	–	–	–
Cc1nc2ccc(-c3ccccc3Cl)nn2c1NC(=O)c1ccncn1 [Compound 348]	C (EC1.5>25 μM)	< 350	C (EC1.5>25 μM)	< 350	–	–	–	–	–
O=C(Nc1cccc(CN2CCOCC2)n1)c1cnc2ccc(-c3ccccc3Cl)nn12 [Compound 116]	–	–	–	–	C (EC1.5>25 μM)	< 350	A (EC1.5<1 μM)	≥ 350	–
Cc1nn2ccc(-c3ccccc3C(F)(F)F)nc2c1NC(=O)c1cccc(N2CCOCC2)n1 [Compound 574]	–	–	–	–	–	–	–	–	Trp EC1.5 (SIRT1 [1]; [11]): B (EC1.5 1-25 μM); Emax (SIRT1 [1]; [12]): < 350%; TAMRA EC1.5 (SIRT1 [2]; [13]): A (EC1.5<1 μM); Emax (SIRT1 [2]; [14]): ≥ 350%
O=C(Nc1cccnc1)c1cnc2ccc(-c3cccc(C(F)(F)F)c3)nn12 [Compound 2]	–	–	–	–	A (EC1.5<1 μM)	≥ 350	B (EC1.5 1-25 μM)	< 350	–
CS(=O)(=O)c1ccccc1-c1ccc2ncc(C(=O)Nc3cccnc3)n2n1 [Compound 189]	–	–	–	–	C (EC1.5>25 μM)	< 350	C (EC1.5>25 μM)	< 350	–
